# Patent publication US7579469B2, “Glucocorticoid mimetics, methods of making them, pharmaceutical compositions, and uses thereof” (Boehringer Ingelheim Pharmaceuticals, Inc., priority 2003, dated 2009)
# Biological target: T1, human glucocorticoid receptor (GR) complex (Homo sapiens, UniProt P04150)
# T1 construct: made in house; host or cells: insect expression system (baculovirus lysate)
# T1 sequence (P04150 1-777): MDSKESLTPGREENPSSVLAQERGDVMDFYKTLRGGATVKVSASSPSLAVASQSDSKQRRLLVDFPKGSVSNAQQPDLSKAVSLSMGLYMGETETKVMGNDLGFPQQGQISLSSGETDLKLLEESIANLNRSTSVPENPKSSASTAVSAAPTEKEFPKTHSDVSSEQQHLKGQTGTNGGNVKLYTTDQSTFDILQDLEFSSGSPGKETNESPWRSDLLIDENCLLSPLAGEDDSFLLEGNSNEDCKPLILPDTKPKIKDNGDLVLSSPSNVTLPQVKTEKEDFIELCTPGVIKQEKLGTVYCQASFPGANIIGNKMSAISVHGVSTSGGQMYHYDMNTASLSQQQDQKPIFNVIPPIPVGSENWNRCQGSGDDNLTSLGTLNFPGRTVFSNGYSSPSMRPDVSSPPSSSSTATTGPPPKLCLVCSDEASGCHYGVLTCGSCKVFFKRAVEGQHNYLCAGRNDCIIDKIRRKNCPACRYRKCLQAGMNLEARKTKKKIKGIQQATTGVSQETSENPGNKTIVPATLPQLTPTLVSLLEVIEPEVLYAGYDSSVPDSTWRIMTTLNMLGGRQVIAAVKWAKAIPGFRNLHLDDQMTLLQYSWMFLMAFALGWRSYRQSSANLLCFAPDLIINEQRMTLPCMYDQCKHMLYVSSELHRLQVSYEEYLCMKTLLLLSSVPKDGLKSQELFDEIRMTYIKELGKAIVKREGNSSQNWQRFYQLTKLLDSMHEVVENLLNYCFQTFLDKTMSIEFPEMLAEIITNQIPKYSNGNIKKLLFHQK
# Experiment: Glucocorticoid receptor competitive binding assay (fluorescence polarization)
# Conditions: competition with TAMRA-labeled dexamethasone
# Summary of the method: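 Fluorescence polarization competition against TAMRA-labelled dexamethasone (50 μL of 15 nM added) for human GR complex from baculovirus insect-cell lysate, diluted 1:170, in TES/KCl/molybdate buffer, pH 7.4.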
row,Compound,activity in the GR binding assay
1,Cc1ccc(C(C)(C)CC(O)(Cn2ccc(=O)c3ccccc32)C(F)(F)F)c(C)c1 (centres unmarked),potent activity
2,CC(C)(CC(O)(Cn1ccc(=O)c2ccccc21)C(F)(F)F)c1cc(-c2cccnc2)ccc1O (centres unmarked) [1-[2-Hydroxy-4-(2-hydroxy-5-pyridin-3-ylphenyl)-4-methyl-2-trifluoromethylpentyl]-1H-quinolin-4-one],potent activity
3,"COc1ccc(C2OCCCO2)cc1C(C)(C)CC(O)(Cn1ccc(=O)c2ccccc21)C(F)(F)F (centres unmarked) [1-[4-(5-[1,3]Dioxan-2-yl-2-methoxyphenyl)-2-hydroxy-4-methyl-2-trifluoromethylpentyl]-1H-quinolin-4-one]",potent activity
4,CC(C)(CC(O)(Cn1ccc(=O)c2ccccc21)C(F)(F)F)c1cc(F)ccc1OC(F)F (centres unmarked),potent activity
5,CC(C)(CC(O)(Cn1ccc(=O)c2ncccc21)C(F)(F)F)c1cccc2c1OCC2 (centres unmarked),potent activity
6,"COc1ccc(F)cc1C(C)(C)CC(O)(Cn1cc(C)c(=O)c(C)c1CO)C(F)(F)F (centres unmarked) [1-[4-(5-Fluoro-2-methoxyphenyl)-2-hydroxy-4-methyl-2-trifluoromethylpentyl]-2-hydroxymethyl-3,5-dimethyl-1H-pyridin-4-one]",potent activity
7,CCOc1ccc(F)cc1C(C)(C)CC(O)(Cn1ccc(=O)c2ccccc21)C(F)(F)F (centres unmarked) [1-[4-(2-Ethoxy-5-fluorophenyl)-2-hydroxy-4-methyl-2-trifluoromethylpentyl]-1H-quinolin-4-one],potent activity
8,CON=C(C)c1cccc(C(C)(C)CC(O)(Cn2ccc(=O)c3ccccc32)C(F)(F)F)c1 (centres unmarked) [1-(2-Hydroxy-4-{3-[1-(methoxyimino)ethyl]phenyl}4-methyl-2-trifluoromethylpentyl)-1H-quinolin-4-one],potent activity
9,CC(=O)COc1cccc(C(C)(C)CC(O)(Cn2ccc(=O)c3ccccc32)C(F)(F)F)c1 (centres unmarked) [1-{2-Hydroxy-4-methyl-4-[3-(2-oxopropoxy)phenyl]-2-trifluoromethylpentyl}-1H-quinolin-4-one],potent activity
10,CC(C)(CC(O)(Cn1ccc(=O)c2ccccc21)C(F)(F)F)c1cc(-c2ccccc2)ccc1O (centres unmarked) [1-[2-Hydroxy-4-(4-hydroxybiphenyl-3-yl)-4-methyl-2-trifluoromethylpentyl]-1H-quinolin-4-one],potent activity
11,CC(C)(CC(O)(Cn1ccc(=O)c2ccccc21)C(F)(F)F)c1ccc(F)c(C2OCCCO2)c1 (centres unmarked),potent activity
12,"CC(C)(CC(O)(Cn1ccc(=O)c2ccccc21)C(F)(F)F)c1cccc(C2(C)OCCO2)c1 (centres unmarked) [1-{2-Hydroxy-4-methyl-4-[3-(2-methyl-[1,3]dioxolan-2-yl)phenyl]-2-trifluoromethylpentyl}-1H-quinolin-4-one]",potent activity
13,"COc1ccc(F)cc1C(C)(C)CC(O)(CN1CC[S+]([O-])c2ccccc21)C(F)(F)F (centres unmarked) [1,1,1-Trifluoro-4-(5-fluoro-2-methoxyphenyl)-4-methyl-2-(1-oxo-2,3-dihydro-1H-1λ^4-benzo[1,4]thiazin-4-ylmethyl)pentan-2-ol]",potent activity
14,COc1ccc(-c2ccccc2)cc1C(C)(C)CC(O)(Cn1ccc(=O)c2ccccc21)C(F)(F)F (centres unmarked) [1-[2-Hydroxy-4-(4-methoxybiphenyl-3-yl)-4-methyl-2-trifluoromethylpentyl]-1H-quinolin-4-one],potent activity
15,CC(C)(CC(O)(Cn1ccc(=O)c2ccccc21)C(F)(F)F)c1cccc(Br)c1 (centres unmarked) [1-[4-(3-Bromophenyl)-2-hydroxy-4-methyl-2-trifluoromethylpentyl]-1H-quinolin-4-one],potent activity

# Next, values leading:
row,activity in the GR binding assay,Compound
1,potent activity,"COc1ccc(F)cc1C(C)(C)CC(O)(CN1CCN(C(C)=O)c2ccccc21)C(F)(F)F (centres unmarked) [1-{4-[4-(5-Fluoro-2-methoxyphenyl)-2-hydroxy-4-methyl-2-trifluoromethylpentyl]-3,4-dihydro-2H-quinoxalin-1-yl}ethanone]"
2,potent activity,"Cc1noc(C)c1-c1cccc(C(C)(C)CC(O)(Cn2ccc(=O)c3ccccc32)C(F)(F)F)c1 (centres unmarked) [1-{4-[3-(3,5-Dimethylisoxazol-4-yl)phenyl]-2-hydroxy-4-methyl-2-trifluoromethylpentyl}-1H-quinolin-4-one]"
3,potent activity,CC(C)(CC(O)(Cn1ccc(=O)c2cc(F)ccc21)C(F)(F)F)c1cc(F)ccc1O (centres unmarked) [6-Fluoro-1-[4-(5-fluoro-2-hydroxyphenyl)-2-hydroxy-4-methyl-2-trifluoromethylpentyl]-1H-quinolin-4-one]
4,potent activity,CC(C)(CC(O)(Cn1ccc(=O)c2cccc(F)c21)C(F)(F)F)c1cc(F)ccc1O (centres unmarked) [8-Fluoro-1-[4-(5-fluoro-2-hydroxyphenyl)-2-hydroxy-4-methyl-2-trifluoromethylpentyl]-1H-quinolin-4-one]
5,potent activity,CC(=O)COc1ccc(F)cc1C(C)(C)CC(O)(Cn1ccc(=O)c2ccccc21)C(F)(F)F (centres unmarked) [1-{4-[5-Fluoro-2-(2-oxopropoxy)phenyl]-2-hydroxy-4-methyl-2-trifluoromethylpentyl}-1H-quinolin-4-one]
6,potent activity,COc1ccc(F)cc1C(C)(C)CC(O)(CN1CCN(C(=O)c2ccco2)CC1)C(F)(F)F (centres unmarked) [{4-[4-(5-Fluoro-2-methoxyphenyl)-2-hydroxy-4-methyl-2-trifluoromethylpentyl]piperazin-1-yl}furan-2-ylmethanone]
7,potent activity,"COc1ccc(F)cc1C(C)(C)CC(O)(CN1CCSc2ccccc21)C(F)(F)F (centres unmarked) [2-(2,3-Dihydrobenzo[1,4]thiazin-4-ylmethyl)-1,1,1-trifluoro-4-(5-fluoro-2-methoxyphenyl)-4-methylpentan-2-ol]"
8,potent activity,"COc1ccc(-c2c(C)noc2C)cc1C(C)(C)CC(O)(Cn1ccc(=O)c2ccccc21)C(F)(F)F (centres unmarked) [1-{4-[5-(3,5-Dimethylisoxazol-4-yl)-2-methoxyphenyl]-2-hydroxy-4-methyl-2-trifluoromethylpentyl}-1H-quinolin-4-one]"
9,potent activity,COc1ccc(F)cc1C(C)(C)CC(O)(Cn1ccc(=O)c2ccc(F)cc21)C(F)(F)F (centres unmarked) [7-Fluoro-1-[4-(5-fluoro-2-methoxyphenyl)-2-hydroxy-4-methyl-2-trifluoromethylpentyl]-1H-quinolin-4-one]
10,potent activity,"COc1ccc(F)cc1C(C)(C)CC(O)(CN1CCNc2ccccc21)C(F)(F)F (centres unmarked) [2-(3,4-Dihydro-2H-quinoxalin-1-ylmethyl)-1,1,1-trifluoro-4-(5-fluoro-2-methoxyphenyl)-4-methylpentan-2-ol]"
11,potent activity,COc1ccc(F)cc1C(C)(C)CC(O)(Cn1ccc(=O)c2cccc(F)c21)C(F)(F)F (centres unmarked) [8-Fluoro-1-[4-(5-fluoro-2-methoxyphenyl)-2-hydroxy-4-methyl-2-trifluoromethylpentyl]-1H-quinolin-4-one]
12,potent activity,CC(C)(CC(O)(Cn1ccc(=O)c2cc(Cl)ccc21)C(F)(F)F)c1cc(F)ccc1O (centres unmarked) [6-Chloro-1-[4-(5-fluoro-2-hydroxyphenyl)-2-hydroxy-4-methyl-2-trifluoromethylpentyl]-1H-quinolin-4-one]

# Tested on: Osteocalcin Production from Osteoblast Cell Line MG-63
# Experiment: Inhibition of osteocalcin production from osteoblast cell line MG-63
# Format: cell-based, human
# Conditions: MG-63 cells, Vitamin D 10 nM, 48 hours, osteocalcin ELISA
# Experimental: Representative compounds of the invention have been tested and have shown activity as modulators of the glucocorticoid receptor function in one or more of the above assays. […] 7. Inhibition of Osteocalcin Production from Osteoblast Cell Line MG-63
# Human osteosarcoma MG-63 cells (ATCC, Cat. No. CRL-1427) are plated on 96 well plates at 20,000 cells per well the day before use in 200 μL media of 99% D-MEM/F-12 (Gibco-Invitrogen, Cat. No. 11039-021), supplemented with 1% penicillin and streptomycin (Gibco-Invitrogen, Cat. No. 15140-122), 10 μg/mL Vitamin C (Sigma, Cat. No. A4544), and 1% charcoal filtered Fetal Bovine Serum (HyClone, Cat. No. SH30068.02). The next day, wells are replaced with fresh media. Cells are treated with Vitamin D (Sigma, Cat. No. D1530) to a final concentration of 10 nM, and with the test compounds in concentrations of 10^−6 M to 10^−9 M, in a total volume of 200 μL per well. Samples are done in duplicates. […] Positive control wells receive Vitamin D only, without compounds, and represent maximum (100%) amount of osteocalcin production. Plates are incubated at 37° C. incubator for 48 hours and supernatants are harvested at the end of incubation. Amounts of osteocalcin in the supernatants are determined by the Glype osteocalcin ELISA kit (Zymed, Cat. No. 99-0054) according to manufacture's protocol. Inhibition of osteocalcin by test compounds is expressed in percentage relative to positive controls. IC50 values of the test compounds are derived by non-lineal curve fitting.
row,Compound,inhibit the vitamin D stimulated production of osteocalcin
1,CC(C)(CC(O)(Cn1ccc(=O)c2ccccc21)C(F)(F)F)c1cccc(-c2ccccc2)c1 (centres unmarked) [1-(4-Biphenyl-3-yl-2-hydroxy-4-methyl-2-trifluoromethylpentyl)-1H-quinolin-4-one],inhibit
2,CC(C)(CC(O)(Cn1ccc(=O)c2ncccc21)C(F)(F)F)c1cc(F)ccc1O (centres unmarked),inhibit
